According to the supplement of paper PMC11451515:

Experiments:
Conditions in all cases: 48 h
SEM cells [1] = assay: AUC of viability dose-response curve (% viability x log10 dose units); higher = less sensitive
Method in brief: (§1)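 Medium-adapted leukemia cells in 1536-well plates, at 500 or 1000 cells/well, were incubated for 48 h at 37°C with library compounds in DMSO at 11 threefold doses from 47 μM to 0.79 nM. CellTiter-Glo One luminescence normalised per plate to DMSO and cell-free wells was fitted with a four-parameter log-logistic model over log10 doses. Area under the curve was integrated from this fit by trapezoidal rule, with curves beyond full viability scaled and failed quality-control curves removed.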

P12-Ichikawa [2] = assay: as above
Method in brief: as §1

NOMO1 [3] = assay: as above
Method in brief: as §1

SEM cells [4] = assay: cell viability relative to DMSO control; higher = less cytotoxic
Method in brief: (§2)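 NOMO1 or SEM (500 cells/well) or P12-Ichikawa (1000 cells/well) leukemia cells were adapted for at least four passages in each medium. They were seeded in 1536-well plates (5 μl) and pin-dosed with library compounds in DMSO over an 11-point threefold series, 47 μM to 0.79 nM. CellTiter-Glo One luminescence was read after 48 h at 37°C. Viability is the per-plate percentage relative to DMSO wells, with cell-free wells as background.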

P12-Ichikawa [5] = assay: as above
Method in brief: as §2

NOMO1 [6] = assay: as above
Method in brief: as §2

CC[C@@H]1C(=O)N(C)c2cnc(Nc3ccc(C(=O)NC4CCN(C)CC4)cc3OC)nc2N1C1CCCC1
AUC of viability dose-response curve
Conditions | NOMO1 [3] | P12-Ichikawa [2] | SEM cells [1]
HPLM + 10% dialyzed FBS | 259 | 187 | 205
RPMI 5 mM glucose + 10% FBS | 240 | 196 | 215
RPMI 5 mM glucose + 10% dialyzed FBS | 252 | 210 | 213

cell viability [%]
Conditions | NOMO1 [6] | P12-Ichikawa [5] | SEM cells [4]
HPLM + 10% dialyzed FBS, 0.000781 µM | 125 | 116 | –
HPLM + 10% dialyzed FBS, 0.00234 µM | 115 | 123 | –
HPLM + 10% dialyzed FBS, 0.00702 µM | 124 | 112 | –
HPLM + 10% dialyzed FBS, 0.0211 µM | 118 | 84.8 | –
HPLM + 10% dialyzed FBS, 0.0632 µM | 45.9 | 13.1 | –
HPLM + 10% dialyzed FBS, 0.19 µM | 43.7 | 13.3 | –
HPLM + 10% dialyzed FBS, 0.569 µM | 57.4 | 13.4 | –
HPLM + 10% dialyzed FBS, 1.71 µM | 46.6 | 16 | –
HPLM + 10% dialyzed FBS, 5.12 µM | 36.9 | 16.5 | –
HPLM + 10% dialyzed FBS, 15.4 µM | 21.5 | 11.4 | –
HPLM + 10% dialyzed FBS, 46.1 µM | 4.78 | 4.01 | –
RPMI 5 mM glucose + 10% FBS, 0.000781 µM | 117 | 126 | 104
RPMI 5 mM glucose + 10% FBS, 0.00234 µM | 112 | 123 | 125
RPMI 5 mM glucose + 10% FBS, 0.00702 µM | 116 | 116 | 114
RPMI 5 mM glucose + 10% FBS, 0.0211 µM | 117 | 107 | 116
RPMI 5 mM glucose + 10% FBS, 0.0632 µM | 68.9 | 15.6 | 39
RPMI 5 mM glucose + 10% FBS, 0.19 µM | 28.6 | 15.3 | 19.9
RPMI 5 mM glucose + 10% FBS, 0.569 µM | 24.5 | 17.5 | 20.8
RPMI 5 mM glucose + 10% FBS, 1.71 µM | 27.1 | 15.4 | 17.8
RPMI 5 mM glucose + 10% FBS, 5.12 µM | 22.9 | 15 | 13.5
RPMI 5 mM glucose + 10% FBS, 15.4 µM | 14.3 | 12.9 | 7.48
RPMI 5 mM glucose + 10% FBS, 46.1 µM | 5.11 | 4.84 | 3.43
RPMI 5 mM glucose + 10% dialyzed FBS, 0.000781 µM | 107 | 116 | 117
RPMI 5 mM glucose + 10% dialyzed FBS, 0.00234 µM | 121 | 124 | 128
RPMI 5 mM glucose + 10% dialyzed FBS, 0.00702 µM | 113 | 121 | 105
RPMI 5 mM glucose + 10% dialyzed FBS, 0.0211 µM | 117 | 114 | 128
RPMI 5 mM glucose + 10% dialyzed FBS, 0.0632 µM | 53.9 | 19.4 | 37.9
RPMI 5 mM glucose + 10% dialyzed FBS, 0.19 µM | 30 | 18.7 | 23.2
RPMI 5 mM glucose + 10% dialyzed FBS, 0.569 µM | 32.6 | 19.7 | 22.1
RPMI 5 mM glucose + 10% dialyzed FBS, 1.71 µM | 39 | 20.8 | 18.9
RPMI 5 mM glucose + 10% dialyzed FBS, 5.12 µM | 30.9 | 21.2 | 11.1
RPMI 5 mM glucose + 10% dialyzed FBS, 15.4 µM | 21.8 | 17.8 | 6.14
RPMI 5 mM glucose + 10% dialyzed FBS, 46.1 µM | 10.4 | 4.69 | 3.08

COc1ccc(-c2ccc3cc(C(=O)O)ccc3c2)cc1C12CC3CC(CC(C3)C1)C2
AUC of viability dose-response curve
Conditions | NOMO1 [3] | P12-Ichikawa [2] | SEM cells [1]
HPLM + 10% dialyzed FBS | 436 | 465 | 459
RPMI 5 mM glucose + 10% FBS | 441 | 447 | 468
RPMI 5 mM glucose + 10% dialyzed FBS | 387 | 458 | 459

COC(=O)N[C@H](C(=O)N1CCC[C@H]1c1ncc(-c2ccc(-c3ccc(-c4cnc([C@@H]5CCCN5C(=O)[C@@H](NC(=O)OC)C(C)C)[nH]4)cc3)cc2)[nH]1)C(C)C
AUC of viability dose-response curve
Conditions | NOMO1 [3] | P12-Ichikawa [2] | SEM cells [1]
HPLM + 10% dialyzed FBS | 437 | 473 | 468
RPMI 5 mM glucose + 10% FBS | 458 | 474 | 468
RPMI 5 mM glucose + 10% dialyzed FBS | 470 | 473 | 460

SEM cells [4], HPLM + 10% dialyzed FBS
Conditions | cell viability [%]
0.000781 µM | 90.4
0.00234 µM | 116
0.00702 µM | 132
0.0211 µM | 125
0.0632 µM | 129
0.19 µM | 126
0.569 µM | 117
1.71 µM | 131
5.12 µM | 133
15.4 µM | 126
46.1 µM | 98.3

Cc1ccc([S+](=O)([O-])Nc2cc(Cl)ccc2C(=O)Nc2nc(-c3ccccc3)cs2)cc1
AUC of viability dose-response curve
Conditions | HPLM + 10% dialyzed FBS | RPMI 5 mM glucose + 10% FBS | RPMI 5 mM glucose + 10% dialyzed FBS
NOMO1 [3] | 455 | 409 | 447
P12-Ichikawa [2] | 458 | 457 | 450

cell viability [%]
Conditions | NOMO1 [6] | P12-Ichikawa [5] | SEM cells [4]
HPLM + 10% dialyzed FBS, 0.000781 µM | 122 | – | 116
HPLM + 10% dialyzed FBS, 0.00234 µM | 117 | – | 111
HPLM + 10% dialyzed FBS, 0.00702 µM | 129 | – | 110
HPLM + 10% dialyzed FBS, 0.0211 µM | 118 | – | 117
HPLM + 10% dialyzed FBS, 0.0632 µM | 121 | – | 121
HPLM + 10% dialyzed FBS, 0.19 µM | 124 | – | 115
HPLM + 10% dialyzed FBS, 0.569 µM | 128 | – | 24.8
HPLM + 10% dialyzed FBS, 1.71 µM | 119 | – | 133
HPLM + 10% dialyzed FBS, 5.12 µM | 103 | – | 119
HPLM + 10% dialyzed FBS, 15.4 µM | 119 | – | 120
HPLM + 10% dialyzed FBS, 46.1 µM | 9.35 | – | 55.3
RPMI 5 mM glucose + 10% FBS, 0.000781 µM | – | – | 127
RPMI 5 mM glucose + 10% FBS, 0.00234 µM | – | – | 123
RPMI 5 mM glucose + 10% FBS, 0.00702 µM | – | – | 109
RPMI 5 mM glucose + 10% FBS, 0.0211 µM | – | – | 126
RPMI 5 mM glucose + 10% FBS, 0.0632 µM | – | – | 124
RPMI 5 mM glucose + 10% FBS, 0.19 µM | – | – | 119
RPMI 5 mM glucose + 10% FBS, 0.569 µM | – | – | 32.1
RPMI 5 mM glucose + 10% FBS, 1.71 µM | – | – | 124
RPMI 5 mM glucose + 10% FBS, 5.12 µM | – | – | 121
RPMI 5 mM glucose + 10% FBS, 15.4 µM | – | – | 120
RPMI 5 mM glucose + 10% FBS, 46.1 µM | – | – | 58.5
RPMI 5 mM glucose + 10% dialyzed FBS, 0.000781 µM | – | 124 | 121
RPMI 5 mM glucose + 10% dialyzed FBS, 0.00234 µM | – | 130 | 110
RPMI 5 mM glucose + 10% dialyzed FBS, 0.00702 µM | – | 117 | 99.1
RPMI 5 mM glucose + 10% dialyzed FBS, 0.0211 µM | – | 123 | 108
RPMI 5 mM glucose + 10% dialyzed FBS, 0.0632 µM | – | 128 | 110
RPMI 5 mM glucose + 10% dialyzed FBS, 0.19 µM | – | 119 | 120
RPMI 5 mM glucose + 10% dialyzed FBS, 0.569 µM | – | 117 | 31.8
RPMI 5 mM glucose + 10% dialyzed FBS, 1.71 µM | – | 116 | 119
RPMI 5 mM glucose + 10% dialyzed FBS, 5.12 µM | – | 114 | 126
RPMI 5 mM glucose + 10% dialyzed FBS, 15.4 µM | – | 101 | 118
RPMI 5 mM glucose + 10% dialyzed FBS, 46.1 µM | – | 26.6 | 32.3
